Assay results from patent US20250066417A9, “NEW PEPTIDE-BASED DIAGNOSTIC AND THERAPEUTIC AGENTS” (ENLITISA (SHANGHAI) PHARMACEUTICAL CO., LTD., priority 2021, published 2025).
Where “and” joins values, the source holds several entries; their conditions need not be identical. Equal entries are not always repeated. Bridges are numbered along the chain shown (N, C = ends). Roman numbers before positions name the chains, in order. Where no end group is shown, it is not given here. [ ]: non-standard residue; d: D form. Dopa = N[C@@H](Cc1ccc(O)c(O)c1)C(=O)O; ACP = 6-aminocaproic acid (linker); Hyp = O=C(O)[C@@H]1C[C@@H](O)CN1

Experiments:
rat rectum [1] = assay: Ex vivo adhesive study: fluorescence imaging of excised rat rectum; settings: rat rectum, 0, 0.5, 1 and 2 hours, FIG. 2
Method: (§1) The title compound of Example 1 above was dissolved in distilled water to make a 0.05 mg/mL solution. The fluorescence absorption of the solution was scanned at 520 nm using a Hitachi F-7000 fluorescence spectrophotometer with an Interval of 20 nm. The optimal excitation wavelength was 450 nm and the maximum absorption wavelength was 521 nm.
(§2) In a separate ex vivo study, rats were anesthetized and their abdominal cavities opened. 8 cm of the rectum was removed and cut Into 2 pieces, with fat and contents stripped. 1 mL of normal saline was used to flush the rectal cavities, which were then placed Into a constant humidity plate. 1 mL of the solution of test compound was Injected Into the rectum and ligated at both ends. Samples were taken at 0 hours, 0.5 hours, 1 hour and 2 hours for fluorescence imaging. A MZX81 fluorescence stereomicroscope was used for imaging (Guangzhou Micro-Shot Technology Co., Ltd).
(§3) The fluorescence Images are show in FIG. 1 (in vivo study) and FIG. 2 (ex vivo study).

rat rectum [2] = assay: In vivo adhesive study: fluorescence imaging of rat rectum after rectal injection
Method: as §1
In an in vivo study, four rats were anesthetized by intraperitoneal injection of 5% chloral hydrate at a dose of 7 ml/kg. 1 mL of the solution of test compound was Injected Into the rectum using a 2 mL syringe. Swallowtail clamps were used to seal the anus to keep the liquid in rectum for about 2 hours. Rats were sacrificed at 2 hours, 4 hours, 8 hours and 24 hours after injection of test compound.
as §2, §3

[3] = Fluorescence stability of the 0.05 mg/mL aqueous solution at room temperature; assay type: physicochemical; settings: 0.05 mg/mL in distilled water, after one hour at room temperature
Method: as §1

[4] = Pharmacokinetic study of tritium-labelled peptide after rectal administration (total radioactivity by liquid scintillation); settings: for Total radioactivity at 168 h (Cmax %): 168 h as % of Cmax
Method: 1 mL of a pH 5.0 acetic acid solution was added to the product of Example 3 above with even mixing. 0.952 mL of the resultant solution was added to a 40 mL glass bottle.
About 200 μL of 0.5% Evans Blue aqueous solution was added followed by even mixing. […] 30 Sprague-Dawley rats, half male and half female (Beijing Vital River Laboratory Animal Technology Co., Ltd.) were quarantined and acclimatised in polycarbonate cages for 5 to 7 days. The environmental conditions were controlled at room temperature of between 20° C. and 26° C., with a relative humidity of between 40% and 70%, with 12 hours of alternating lightness and darkness.
The body weights required for randomization were obtained on Day 1 (before dosing). After randomization, rats were assigned to one of five groups (three animals per sex in each group).
After weighing, animals were anesthetized by Intramuscular Injection of Zoletil-50. The animals were placed on their backs. Stools at the end of their rectums were gently squeezed out, and the skin around anus was disinfected with 75% alcohol.
A closed catheter (No. 8, double lumen with guide wire) was Inserted Into the anus of the rats to a depth of about 3 cm, and then a gastric lavage needle was slowly Inserted to a depth of at least 3.5 cm. After lifting the perlanal skin, fixing the catheter and the gavage needle, about 1 mL of water was Injected Into the bladder cavity of the syringe guide catheter to make it expand. Then the gel comprising the title compound was given quickly through the needle.
After administration, the catheter was ligated and fixed by wrapping tape around the root of the rats' tails. The catheter remained in the rectum for about 4 hours before removal.
Blood, rectal contents and rectal mucosa samples were collected. All centrifuge tubes coated with EDTA-K2 were stored either in a refrigerator (at 2 to 8° C.) or In a cooler filled with Ice, and were protected from light prior to use. The collected blood was transferred Into the centrifuge tubes and stored in an Ice box protected from light after being mixed manually by reversing the tubes at least 5 times.
Then, the tubes were centrifuged at 1800 g for 10 minutes at between 2 and 8° C., 2 hours after blood collection. After centrifugation, the collected plasma samples were transferred Into newly-labeled centrifuge tubes and aliquoted Into two sets, stored ay below −70° C.
Plasma, rectal contents and rectal mucosa samples were analyzed using a liquid scintillation counter, and the radioactive concentration was calculated according to the actual sampling volume. Half-lives were also calculated using WinNonlin software. MS Excel was used for data statistical analysis, including mean, standard deviation (SD), and coefficient of variation (CV), etc.
Total radioactivity unit (ng Eq./g)=DPM/g÷S.A. ×1000, S.A.=144,300 DPM/μg

[5-FITC-ACP-Ala-Lys-Pro-Ser-Tyr-Hyp-Thr-DOPA-Hyp-Lys)2-Lys]2-Lys ({5‑FITC-ACP}-AKPSY[Hyp]T[Dopa][Hyp]K; also: branched dendrimer: four peptide copies on a three-Lys core) [Example 1]
adhesiveness of test compound to mucous (rat rectum [1]): very stable
adhesiveness of test compound to mucous (rat rectum [2]; rat rectum, 2, 4, 8 and 24 hours after injection, FIG. 1): very stable
fluorescence intensity in the in vivo samples (rat rectum [2]; rat rectum, even with constant fecal excretion): did not decrease significantly
fluorescence intensity (stability of test compound in solution) [3]: did not change

I: AKPSY[Hyp]T[Dopa][Hyp]KKK-OH / II: AKPSY[Hyp]T[Dopa][Hyp]KK / III: AKPSY[Hyp]T[Dopa][Hyp]K / IV: AKPSY[Hyp]T[Dopa][Hyp]K (amide I:11-IV:C, I:12-II:C, II:11-III:C) [Example 3, ^3H-Labelled [(Ala-Lys-Pro-Ser-Tyr-Hyp-Thr-DOPA-Hyp-Lys)2-Lys]2-Lys]
radioactivity in rectal mucosa relative to rectal contents ([4]; 24 hours after administration): about 6.01 times
radioactivity in rectal mucosa relative to rectal contents ([4]; 72 hours after administration): ~3.32 times
radioactivity in rectal mucosa relative to rectal contents ([4]; 168 hours): 2.28 times
radioactivity concentration of rectal mucosa relative to plasma ([4]; one hour after rectal administration): 1121 times
Total radioactivity ([4]; plasma, 1 h, rectal 1.5 mg/100 μCi/kg, rats): 47.8 ng Eq./g and 47.8 ± 12.2 ng Eq./g
Total radioactivity ([4]; plasma, 6 h, rectal 1.5 mg/100 μCi/kg, rats): 54.1 ng Eq./g and 54.1 ± 14.4 ng Eq./g
Total radioactivity ([4]; plasma, 24 h, rectal 1.5 mg/100 μCi/kg, rats): 18.6 ± 6.2 ng Eq./g
Total radioactivity ([4]; plasma, 72 h, rectal 1.5 mg/100 μCi/kg, rats): 15.2 ± 8.4 ng Eq./g
Total radioactivity ([4]; plasma, 168 h, rectal 1.5 mg/100 μCi/kg, rats): 13.3 ± 3.41 ng Eq./g
tolerability of the experimental dose ([4]; rectal 1.5 mg/100 μCi/kg, rats): well tolerated
adverse reaction after administration ([4]; rectal 1.5 mg/100 μCi/kg, rats, whole experiment): no obvious adverse reaction
time of highest total radioactivity after administration ([4]; rectal contents): 1 h
Total radioactivity ([4]; rectal contents, 1 h, rectal 1.5 mg/100 μCi/kg, rats): 35322 ng Eq./g and 35322 ± 515 ng Eq./g
Total radioactivity ([4]; rectal contents, 6 h, rectal 1.5 mg/100 μCi/kg, rats): 21981 ± 153 ng Eq./g
Total radioactivity ([4]; rectal contents, 24 h, rectal 1.5 mg/100 μCi/kg, rats): 56.4 ± 54. ng Eq./g
average concentration at 24 hours as % of Cmax ([4]; rectal contents): ~0.16%
Total radioactivity ([4]; rectal contents, 72 h, rectal 1.5 mg/100 μCi/kg, rats): 44.3 ± 27. ng Eq./g
Total radioactivity ([4]; rectal contents, 168 h, rectal 1.5 mg/100 μCi/kg, rats): 16.5 ng Eq./g and 16.5 ± 6.88 ng Eq./g
Total radioactivity at 168 h (Cmax %) ([4]; rectal contents): 0.05%
time of highest total radioactivity after administration ([4]; rectal mucosa): 1 h
Total radioactivity ([4]; rectal mucosa, 1 h, rectal 1.5 mg/100 μCi/kg, rats): 53593 ng Eq./g and 53593 ± 472 ng Eq./g
radioactivity concentration of rectal mucosa relative to that at 1 h ([4]; rectal mucosa, 6 h (11163 ng Eq./g)): about 20.83%
Total radioactivity ([4]; rectal mucosa, 6 h, rectal 1.5 mg/100 μCi/kg, rats): 11163 ng Eq./g and 11163 ± 702 ng Eq./g
Total radioactivity ([4]; rectal mucosa, 24 h, rectal 1.5 mg/100 μCi/kg, rats): 339 ng Eq./g and 339 ± 95. ng Eq./g
average concentration at 24 hours as % of Cmax ([4]; rectal mucosa): about 0.63%
Total radioactivity ([4]; rectal mucosa, 72 h, rectal 1.5 mg/100 μCi/kg, rats): 147 ng Eq./g and 147 ± 84. ng Eq./g
Total radioactivity ([4]; rectal mucosa, 168 h, rectal 1.5 mg/100 μCi/kg, rats): 37.6 ng Eq./g and 37.6 ± 10.2 ng Eq./g
Total radioactivity at 168 h (Cmax %) ([4]; rectal mucosa): 0.07%
gender differences in total radioactivity concentrations ([4]; rectal mucosa, rectal contents and plasma, male vs female rats): no significant gender differences
